From PubChem BioAssay (NCI)
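Method: 48-hour compound exposure of cells in 96-well plates, five concentrations, linear interpolation of endpoints. GI50: concentration for 50% inhibition of growth. TGI denotes the concentration required for complete inhibition of growth.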

Key:
Assay in all cases: DTP human tumour cell line panel, 48 h
[1] = tested on: CAKI-1 renal
[2] = tested on: MOLT-4 leukemia
[3] = tested on: CCRF-CEM leukemia
[4] = tested on: IGROV1 ovarian
[5] = tested on: SN12C renal
[6] = tested on: HCC-2998 colon
[7] = tested on: UO-31 renal
[8] = tested on: SK-MEL-2 melanoma
[9] = tested on: NCI-H23 lung
[10] = tested on: MCF7 breast

Row | SMILES | TGI [1] | TGI [2] | TGI [3] | TGI [4] | TGI [5] | TGI [6] | TGI [7] | TGI [8] | TGI [9] | GI50 [9] | GI50 [7] | GI50 [1] | GI50 [2] | GI50 [3] | GI50 [5] | GI50 [8] | GI50 [6] | TGI [10] | GI50 [10] | GI50 [4]
1 | CCOC(=O)NC(=O)c1cn(CCCOC(=O)CCCCCCCCC(=O)OCCCn2cc(C(=O)NC(=O)OCC)c(=O)[nH]c2=O)c(=O)[nH]c1=O | 51.3 µM | 95.9 µM | 21.6 µM | 58.1 µM | > 100 µM | 44.8 µM |  |  |  |  |  |  |  |  |  |  |  |  |  | 
2 | O=C(O)c1ccc([N+](=O)[O-])c2c(=O)c3ccccc3[nH]c12 | > 100 µM | > 100 µM | > 100 µM | > 100 µM | > 100 µM | > 100 µM | > 100 µM | > 100 µM |  |  |  |  |  |  |  |  |  |  |  | 
3 | COc1ccc(C=NC23CC4CC(CC(C4)C2)C3)cc1 | > 100 µM | > 100 µM | > 100 µM | > 100 µM | > 100 µM | > 100 µM | > 100 µM | > 100 µM | > 100 µM |  |  |  |  |  |  |  |  |  |  | 
4 | O=Cc1[nH]c2ccccc2c1Br | > 100 µM | 68.6 µM | 99.2 µM | 70.2 µM | 50.5 µM | > 100 µM | 97 µM | 31.2 µM | 87.8 µM |  |  |  |  |  |  |  |  |  |  | 
5 | Cc1cc2c(c(C#N)c1C)NC(=O)C(CC(=O)O)C2=O (stereo not given) | > 100 µM | > 100 µM | > 100 µM | > 100 µM | > 100 µM | > 100 µM | > 100 µM | > 100 µM | > 100 µM |  |  |  |  |  |  |  |  |  |  | 
6 | Cc1cccc(C)c1NC(=O)C(=O)CC(=O)CO | > 100 µM | > 100 µM | > 100 µM | > 100 µM | > 100 µM | > 100 µM | > 100 µM | > 100 µM | > 100 µM |  |  |  |  |  |  |  |  |  |  | 
7 | O=C(c1ccc(NCN2C(=O)CCC2=O)cc1)c1ccc(NCN2C(=O)CCC2=O)cc1 |  | > 100 µM | > 100 µM | > 100 µM | > 100 µM | > 100 µM | > 100 µM | > 100 µM | > 100 µM |  |  |  |  |  |  |  |  |  |  | 
8 | O=C1NC2(O)c3ccccc3C(=O)C2(O)N1c1ccccc1 (stereo not given) | > 100 µM | > 100 µM | > 100 µM | > 100 µM |  | > 100 µM | > 100 µM | > 100 µM | > 100 µM |  |  |  |  |  |  |  |  |  |  | 
9 | c1ccc2[nH]c(-c3ccc(OCCCCCOc4ccc(-c5nc6ccccc6[nH]5)cc4)cc3)nc2c1 | 6.8 µM | 3.48 µM | 0.54 µM |  | 10.2 µM | 7.59 µM | 3.67 µM | 12.7 µM | 26 µM | 8.89 µM | 1.25 µM | 1.97 µM | 1.07 µM | 0.195 µM | 3.27 µM | 6.23 µM | 2.31 µM |  |  | 
10 | CC(=O)O[C@@H]1CC(C)C2CC2C2=C(C(O)OC2O)[C@@H]1C(C)CCC=C(C)C (stereo not given in full) | 58.3 µM | 54.5 µM | 51.9 µM | 51.1 µM | 35.9 µM | 40.5 µM | 47.6 µM | > 100 µM | 55.4 µM |  |  |  |  |  |  |  |  |  |  | 
11 | COC1=C(C(=O)OC(C)(C)C)[C@]2(C)C(C(=O)OC(C)(C)C)C(OC)=C(C(=O)OC(C)(C)C)[C@]2(C)C1C(=O)OC(C)(C)C (stereo not given in full) | > 100 µM | > 100 µM | > 100 µM | > 100 µM | > 100 µM | > 100 µM | > 100 µM | > 100 µM | > 100 µM |  |  |  |  |  |  |  |  |  |  | 
12 | COc1cc2c(OC)c(c1)CCCC1=CC(=O)C=C(CCC2)C1=O | > 100 µM | 15.7 µM | 20.1 µM | > 100 µM | > 31.6 µM | > 100 µM | > 100 µM |  | > 100 µM |  |  |  |  |  |  |  |  | > 100 µM |  | 
13 | N#CC(C#N)=CN1CCN(C(=O)c2ccccc2)C1=S | 89.4 µM | > 100 µM | > 100 µM | > 100 µM | 65.8 µM |  | 47.3 µM | 68.4 µM | 60.1 µM | 26.1 µM | 20.4 µM | 28.7 µM | 39.2 µM | > 100 µM | 24.6 µM | 18.4 µM |  | 55.9 µM | 16.7 µM | 28.2 µM
14 | Cn1c2ccc([N+](=O)[O-])cc2c(=O)c2c(O)cc(O)cc21 | > 100 µM | > 100 µM | > 100 µM | 45.3 µM | > 100 µM | > 100 µM | > 100 µM |  |  |  |  |  |  |  |  |  |  | > 100 µM |  | 
15 | O[C@]12CCCC[C@H]1CCC2 | > 100 µM | > 100 µM | > 100 µM | > 100 µM | > 100 µM | > 100 µM | > 100 µM | > 100 µM | > 100 µM |  |  |  |  |  |  |  |  |  |  | 
16 | CC(=S)NNC(=O)c1ccncc1 | > 100 µM | > 100 µM | > 100 µM | > 100 µM | > 100 µM | > 100 µM | > 100 µM | > 100 µM | > 100 µM |  |  |  |  |  |  |  |  |  |  | 
17 | COC1CC(OS(=O)(=O)c2ccc(C)cc2)C(OS(=O)(=O)c2ccc(C)cc2)C(COS(=O)(=O)c2ccc(C)cc2)O1 (stereo not given) | 7.7 µM | > 100 µM | > 100 µM | 17.2 µM | 20.8 µM | 49.3 µM | 12.1 µM | 20.1 µM | 15.6 µM |  |  |  |  |  |  |  |  |  |  | 
18 | NC(=NC1CCCCCC1)c1ccc(N2CCN(c3ccc(C(N)=NC4CCCCCC4)cc3)CC2)cc1 | > 50 µM | > 50 µM | 46.5 µM |  | 16.9 µM | > 50 µM | > 50 µM | 18.1 µM | 18.5 µM | 4.77 µM | 33.7 µM | > 50 µM | 23.9 µM | 10.5 µM | 2.33 µM | 7.65 µM | 8.9 µM |  |  | 
19 | CCOC(=O)C#Cc1ccc(C#CC(=O)OCC)cc1 | > 20.2 µM |  | > 20.8 µM | > 100 µM |  |  |  |  | > 30 µM |  |  |  |  |  |  |  |  | 10.6 µM |  | 
20 | CC[O-].CC[O-].O=Nc1ccc2cc([O-])ccc2c1.O=Nc1ccc2cc([O-])ccc2c1.[Ti+4] | 12.2 µM |  | > 27.3 µM |  | 3.16 µM | 14.2 µM | 3.63 µM | 4.75 µM | 3.19 µM | 1.46 µM | 1.78 µM | 3.76 µM |  | 2.71 µM | 1.74 µM | 2.13 µM | 3.3 µM |  |  | 
21 | N#CC1(c2nc3ccccc3o2)C(=O)C(=O)N(c2ccc(Cl)c(Cl)c2)C(=O)C1=O | > 100 µM | > 100 µM | > 100 µM |  | > 100 µM | > 100 µM | > 100 µM | > 100 µM | > 100 µM |  |  |  |  |  |  |  |  |  |  | 
